The results in this text go back to patent publication US11358969B2, “Indole AHR inhibitors and uses thereof” (Ikena Oncology, Inc., priority 2017, dated 2022).

The structures appear in SMILES notation.

Data set [1] in a line: In Vitro Mouse liver S9 Metabolic Stability Assay (Example 1D). It counts as in vitro ADME. The following applies: CD-1 mouse liver S9, 1 μM compound, 1 mg/mL S9 protein, 37° C., NADPH regenerating system, UDPGA, PAPS. Summed up:
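Compound at 1 μM final (0.1% DMSO) incubated at 37° C with pooled CD-1 mouse liver S9 (1 mg/mL protein) plus NADPH-regenerating system, UDPGA and PAPS. Samples at 0 and 60 min quenched in cold acetonitrile with internal standard; LC-MS/MS analyte/IS peak-area ratios give % remaining at 60 min.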

Data set [2] addresses T1, AHR (UniProt P35869).
T1 construct: IC50
T1 sequence (P35869 1-848): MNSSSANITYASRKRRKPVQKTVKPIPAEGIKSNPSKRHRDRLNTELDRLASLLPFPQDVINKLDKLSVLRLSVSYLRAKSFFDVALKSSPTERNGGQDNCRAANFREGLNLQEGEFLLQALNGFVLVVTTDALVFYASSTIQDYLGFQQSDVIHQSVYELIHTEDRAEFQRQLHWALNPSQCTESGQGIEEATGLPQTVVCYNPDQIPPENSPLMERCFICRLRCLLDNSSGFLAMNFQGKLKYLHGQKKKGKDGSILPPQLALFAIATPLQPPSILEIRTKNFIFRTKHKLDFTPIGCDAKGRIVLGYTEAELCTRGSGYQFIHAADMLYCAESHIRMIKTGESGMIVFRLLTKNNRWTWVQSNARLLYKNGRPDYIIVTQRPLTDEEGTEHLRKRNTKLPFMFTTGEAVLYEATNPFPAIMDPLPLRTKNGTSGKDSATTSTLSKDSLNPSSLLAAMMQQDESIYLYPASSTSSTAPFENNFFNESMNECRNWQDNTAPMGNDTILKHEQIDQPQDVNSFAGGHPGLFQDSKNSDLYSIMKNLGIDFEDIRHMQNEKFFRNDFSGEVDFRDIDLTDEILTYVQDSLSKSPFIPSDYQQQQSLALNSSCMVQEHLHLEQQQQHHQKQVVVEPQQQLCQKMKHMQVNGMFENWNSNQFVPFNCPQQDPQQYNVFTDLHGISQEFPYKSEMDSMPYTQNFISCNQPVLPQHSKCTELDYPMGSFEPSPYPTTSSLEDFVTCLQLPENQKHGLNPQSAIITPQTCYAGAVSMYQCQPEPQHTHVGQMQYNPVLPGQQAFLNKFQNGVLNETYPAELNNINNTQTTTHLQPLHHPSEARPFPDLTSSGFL
Nature of the data set: DRE-Luciferase Reporter Assay (Example 1A). Type of data set: cell-based, murine or human. Particulars: cell line and AHR activating ligand not specified. As for the experimental part:
AHR binds to Dioxin Responsive Elements (DRE) upstream of genes that it activates. One measure of AHR activity is activation of a reporter gene, such as luciferase, downstream of one or multiple DRE elements. Luciferase activity will reflect activation and inhibition of AHR in the cells expressing his reporter.
Murine Hepa1-6 or Hepa-1c1c7 or other murine cell line with a DRE-luciferase reporter either stably or transiently transfected were plated in media in plates (96-well, 384-well or other plates) and incubated overnight at 37° C. in a CO2 incubator. Likewise, human HepG2 or other human cell line with a DRE-luciferase reporter either stably or transiently transfected were plated in media in plates (96-well, 384-well or other plates) and incubated overnight at 37° C. in a CO2 incubator.
The next day, an AHR activating ligand, such as TCDD, kynurenine, ITE (2-(1H-indole-3-ylcarbonyl)-4-thiazolecarboxylic methyl ester), VAF347, BNF (beta-naphthoflavone), FICZ (6-formylindolo(3,2-b) carbazole or other AHR ligands, was added with or without AHR antagonist.
Cells were incubated for 4, 15 or 24 hours or another time point and then lysed for determination of luciferase activity as a read-out of the AHR activation or inhibition. Luciferase was measured with a commercial kit such as the Promega Luciferase kit or any kit or reagents that provide the luciferin substrate for measuring luciferase activity. The level of luciferase with only activating ligand added was the maximum signal while the luciferase with no ligand was the minimum signal. IC50 values were determined as the concentration which inhibits half of the luciferase activity.
Background: A reporter such as luciferase makes a cellular process visible.

In data set [3] the test system is CT26 murine colon carcinoma. Nature of the data set: Efficacy study in the mouse colorectal cancer model CT26 (Example 1G). It counts as in vivo. Particulars: CT26 in Balb/c mice, FIG. 3. As for the experimental part: CT26 is a murine colon carcinoma cell line obtained from ATCC. CT26 cells were cultured in RPMI supplemented with 10% FBS. 5×10^5 CT26 cells in 100 μl PBS were implanted subcutaneously in 6-8 week old female, Balb/c mice. Dosing for the efficacy study starts 4 days post implant: AHR antagonist was dosed orally, every day (QD) at or 10 mg/kg for 3 weeks. anti-PD-1 (BioXcell RMP1-14) was twice a week, intraperitoneally (IP) at 10 mg/kg for five total doses. Tumors were monitored by caliper measurement every 2-3 days and body weight measured three times per week.

In the case of `CC(C)c1cnn2c(NCCc3c[nH]c4ccccc34)cc(-c3cncc(F)c3)nc12` [I-2, N-(2-(1H-indol-3-yl)ethyl)-5-(5-fluoropyridin-3-yl)-3-isopropylpyrazolo[1,5-a]pyrimidin-7-amine], the “Mouse S9 Stability: % Remaining After 60 Minutes” value in data set [1] is 13%. The IC50 (as a rule, the point on the concentration scale where inhibition reaches its midpoint) in data set [2] was less than 500 nM.

Consider `Cc1cnn2c(N[C@@H]3CCc4[nH]c5ccccc5c4C3)nc(-c3cncc(F)c3)nc12` [I-201, (3R)—N-[2-(5-fluoro-3-pyridyl)-8-methyl-pyrazolo[1,5-a][1,3,5]triazin-4-yl]-2,3,4,9-tetrahydro-1H-carbazol-3-amine], for which, in data set [1], the “Mouse S9 Stability: % Remaining After 60 Minutes” value stood at 34%.

For the compound `Cc1cnn2c(NCCc3c[nH]c4ccccc34)cc(-c3cncc(F)c3)nc12` [I-70, 5-(5-Fluoro-3-pyridyl)-N-[2-(1H-indol-3-yl)ethyl]-3-methyl-pyrazolo[1,5-a]pyrimidin-7-amine], the “Mouse S9 Stability: % Remaining After 60 Minutes” value in data set [1] is reported as 0%. For the same compound, the Tumor growth entry in data set [3] (I-70 alone, orally QD 10 mg/kg for 3 weeks) is listed as “inhibited”; in data set [3] (I-70 in combination with anti-PD-1 (IP 10 mg/kg twice a week)), “inhibited”.

Turning to `CC(C)c1cnn2c(N[C@@H]3CCc4[nH]c5ccccc5c4C3)nc(-c3cncc(F)c3)nc12` [I-40, (3R)—N-[2-(5-Fluoro-3-pyridyl)-8-isopropyl-pyrazolo[1,5-a][1,3,5]triazin-4-yl]-2,3,4,9-tetrahydro-1H-carbazol-3-amine], the “Mouse S9 Stability: % Remaining After 60 Minutes” value in data set [1] worked out at 87%.
